# Test results published in US20240228488A1 (TAKEDA PHARMACEUTICAL COMPANY LIMITED, priority 2021, published 2024).
# Biological target: human activated kallikrein enzyme (Homo sapiens, UniProt P03952)
# Test: Plasma kallikrein inhibition, fluorogenic PFR-AMC substrate, 500 pM activated kallikrein format
# Assay type: biochemical
# Conditions: 500 pM activated kallikrein, 300 uM PFR-AMC, 30 min preincubation, 10 min reaction; read-out: Primary Dose Response Assay: Average EC50
# Procedure, shortened: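 500 pM enz + cpd, 30 min RT preinc; start w/ PFR-AMC 300 uM; 10 min RT; Ex380/Em460. Buffer: Tris 20 mM pH 7.5, EDTA 1 mM, NaCl 150 mM, PEG-400 0.1%, Triton 0.1%. EC50.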
# Chain of human activated kallikrein enzyme (P03952 391-638 limits assumed): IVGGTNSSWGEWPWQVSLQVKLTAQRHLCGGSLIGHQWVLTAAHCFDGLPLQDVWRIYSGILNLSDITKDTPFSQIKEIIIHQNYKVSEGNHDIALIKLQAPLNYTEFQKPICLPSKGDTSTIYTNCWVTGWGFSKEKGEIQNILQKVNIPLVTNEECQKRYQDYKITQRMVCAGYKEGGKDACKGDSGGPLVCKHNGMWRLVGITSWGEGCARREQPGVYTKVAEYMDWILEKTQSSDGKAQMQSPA
# Chain of human activated kallikrein enzyme (P03952 20-390 partner limits assumed): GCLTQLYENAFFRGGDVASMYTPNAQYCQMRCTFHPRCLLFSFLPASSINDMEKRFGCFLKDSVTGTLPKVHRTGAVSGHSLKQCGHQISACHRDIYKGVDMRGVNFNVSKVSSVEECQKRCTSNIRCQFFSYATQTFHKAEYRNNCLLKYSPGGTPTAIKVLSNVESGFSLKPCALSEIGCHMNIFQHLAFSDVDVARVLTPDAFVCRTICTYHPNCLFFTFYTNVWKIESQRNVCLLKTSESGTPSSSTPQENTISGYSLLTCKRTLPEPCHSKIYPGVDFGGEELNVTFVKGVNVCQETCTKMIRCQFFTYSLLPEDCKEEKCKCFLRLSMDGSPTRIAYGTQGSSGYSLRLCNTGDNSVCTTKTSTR
row,Structure (SMILES),EC50 [nM]
1,"O=C(Nc1cc(NCc2cn3cc(C4CC4)cc(-n4cnnc4)c3n2)ncn1)[C@H]1C[C@@H]1c1cccc(Cl)c1 (racemic) [Example 405, rac-(1S*,2S*)-2-(3-chlorophenyl)-N-(6-(((6-cyclopropyl-8-(4H-1,2,4-triazol-4-yl)imidazo[1,2-a]pyridin-2-yl)methyl)amino)pyrimidin-4-yl)cyclopropane-1-carboxamide]",< 1
2,"O=C1CN(c2cc(C3CC3)cn3cc(CNc4cc(NC(=O)[C@H]5C[C@@H]5c5cccc(Cl)c5)ncn4)nc23)CCN1 [Example I-149, (1S,2S)-2-(3-chlorophenyl)-N-(6-(((6-cyclopropyl-8-(3-oxopiperazin-1-yl)imidazo[1,2-a]pyridin-2-yl)methyl)amino)pyrimidin-4-yl)cyclopropane-1-carboxamide]",1 to 10
3,"O=C(Nc1cc(NCc2cn3cc(C4CC4)cc(N4CC(F)(F)C4)c3n2)ccn1)[C@H]1C[C@@H]1c1cccc(Cl)c1 [Example 124, (1S,2S)-2-(3-chlorophenyl)-N-(4-(((6-cyclopropyl-8-(3,3-difluoroazetidin-1-yl)imidazo[1,2-a]pyridin-2-yl)methyl)amino)pyridin-2-yl)cyclopropane-1-carboxamide]",1 to 10
4,"O=C(Nc1cc(N2C[C@H](O)C[C@@H]2c2cn3cc(C4CC4)ccc3n2)ncn1)[C@H]1C[C@@H]1c1cccc(Cl)c1 [Example I-250, (1S,2S)-2-(3-chlorophenyl)-N-(6-((2R,4R)-2-(6-cyclopropylimidazo[1,2-a]pyridin-2-yl)-4-hydroxypyrrolidin-1-yl)pyrimidin-4-yl)cyclopropane-1-carboxamide]",> 6000
5,"Cc1ccnc([C@H]2C[C@@H]2C(=O)Nc2ncnc3nn(Cc4cn5cc(C6CC6)cc(N6CC(=O)N(C)C6=O)c5n4)cc23)n1 (single isomer, unassigned) [Example I-633, rac-(1S*,2S*)—N-(2-((6-cyclopropyl-8-(3-methyl-2,4-dioxoimidazolidin-1-yl)imidazo[1,2-a]pyridin-2-yl)methyl)-2H-pyrazolo[3,4-d]pyrimidin-4-yl)-2-(4-methylpyrimidin-2-yl)cyclopropane-1-carboxamide]",100 to 1000
6,"O=C(Nc1cc(NCc2cn3cc(C4CC4)ccc3n2)ncn1)[C@@H]1C[C@]12CCc1ccc(Cl)cc12 (racemic) [Example I-183, rac-(1R*,2R*)-6′-chloro-N-(6-(((6-cyclopropylimidazo[1,2-a]pyridin-2-yl)methyl)amino)pyrimidin-4-yl)-2′,3′-dihydrospiro[cyclopropane-1,1′-indene]-2-carboxamide]",10 to 100
7,"Cc1ccnc([C@H]2C[C@@H]2C(=O)Nc2cc(F)c(Cl)c(NCc3cn4cc(C5CC5)cc(N5CC(=O)N(C)C5=O)c4n3)c2)n1 [Example 658, (1S,2S)—N-(4-chloro-3-(((6-cyclopropyl-8-(3-methyl-2,4-dioxoimidazolidin-1-yl)imidazo[1,2-a]pyridin-2-yl)methyl)amino)-5-fluorophenyl)-2-(4-methylpyrimidin-2-yl)cyclopropane-1-carboxamide]",< 1
8,"O=C(Nc1cc(NCc2cn3cc(C4CC4)ccc3n2)ccn1)[C@H]1C[C@@H]1c1ccc(Cl)s1 (racemic) [Example I-218, rac-(1S*,2S*)-2-(5-chlorothiophen-2-yl)-N-(4-(((6-cyclopropylimidazo[1,2-a]pyridin-2-yl)methyl)amino)pyridin-2-yl)cyclopropane-1-carboxamide]",10 to 100
9,"Cc1ccnc([C@H]2C[C@@H]2C(=O)Nc2cc(N3CC(C)(O)C[C@@H]3c3cn4cc(C5CC5)ccc4n3)ncn2)n1 (stereo partly drawn) [Example 426, (1S,2S)-N-(6-((2R)-2-(6-cyclopropylimidazo[1,2-a]pyridin-2-yl)-4-hydroxy-4-methylpyrrolidin-1-yl)pyrimidin-4-yl)-2-(4-methylpyrimidin-2-yl)cyclopropane-1-carboxamide]",10 to 100
10,"O=C(Nc1cc(NCc2cn3cc(C4CC4)ccc3n2)ncn1)[C@H]1C[C@@H]1c1cc(Cl)ccn1 (single isomer, unassigned) [Example I-266, rac-(1S*,2S*)-2-(4-chloropyridin-2-yl)-N-(6-(((6-cyclopropylimidazo[1,2-a]pyridin-2-yl)methyl)amino)pyrimidin-4-yl)cyclopropane-1-carboxamide]",100 to 1000
11,O=C(Nc1cc(NCc2cn3cc(C4CC4)cc(N4CCCC4=O)c3n2)ccn1)[C@@H]1C[C@H]1c1cccc(Cl)c1 (relative stereo) [Example 118],< 1
12,"Cc1ccnc([C@H]2C[C@@H]2C(=O)Nc2nncc(OCc3cn4cc(C5CC5)cc(N5CC(=O)N(C)C5=O)c4n3)n2)n1 [Example 671, (1S,2S)—N-(5-((6-cyclopropyl-8-(3-methyl-2,4-dioxoimidazolidin-1-yl)imidazo[1,2-a]pyridin-2-yl)methoxy)-1,2,4-triazin-3-yl)-2-(4-methylpyrimidin-2-yl)cyclopropane-1-carboxamide]",< 1
13,"Cc1ccnc([C@H]2C[C@@H]2C(=O)Nc2cccc(S(=O)(=O)Cc3cn4cc(C5CC5)cc(N5CC(=O)N(C)C5=O)c4n3)c2)n1 [Example I-646, (1S,2S)—N-(3-(((6-cyclopropyl-8-(3-methyl-2,4-dioxoimidazolidin-1-yl)imidazo[1,2-a]pyridin-2-yl)methyl)sulfonyl)phenyl)-2-(4-methylpyrimidin-2-yl)cyclopropane-1-carboxamide]",> 6000
14,"CCc1cc(N2CC(=O)N(C)C2=O)c2nc([C@@H](C)Nc3cc(NC(=O)[C@H]4C[C@@H]4c4nccc(C)n4)ncn3)cn2c1 [Example 419, (1S,2S)-N-(6-(((R)-1-(6-ethyl-8-(3-methyl-2,4-dioxoimidazolidin-1-yl)imidazo[1,2-a]pyridin-2-yl)ethyl)amino)pyrimidin-4-yl)-2-(4-methylpyrimidin-2-yl)cyclopropane-1-carboxamide]",< 1
15,"O=C(Nc1cc2c(cn1)OCCN2Cc1cn2cc(C3CC3)ccc2n1)[C@H]1C[C@@H]1c1cccc(Cl)c1 [Example 597, (1S,2S)-2-(3-chlorophenyl)-N-(1-((6-cyclopropylimidazo[1,2-a]pyridin-2-yl)methyl)-2,3-dihydro-1H-pyrido[3,4-b][1,4]oxazin-7-yl)cyclopropane-1-carboxamide]",1 to 10
16,"N[C@H]1C[C@H](c2cn3cc(C4CC4)ccc3n2)N(c2cc(NC(=O)[C@H]3C[C@@H]3c3cccc(Cl)c3)ncn2)C1 [Example 297, (1S,2S)—N-(6-((2R,4S)-4-amino-2-(6-cyclopropylimidazo[1,2-a]pyridin-2-yl)pyrrolidin-1-yl)pyrimidin-4-yl)-2-(3-chlorophenyl)cyclopropane-1-carboxamide]",1000 to 6000
17,"O=C(Nc1cc(NCc2cn3cc(C4CC4)cc(OC4CNC4)c3n2)ncn1)[C@H]1C[C@@H]1c1cccc(Cl)c1 [Example 306, (1S,2S)—N-(6-(((8-(azetidin-3-yloxy)-6-cyclopropylimidazo[1,2-a]pyridin-2-yl)methyl)amino)pyrimidin-4-yl)-2-(3-chlorophenyl)cyclopropane-1-carboxamide]",< 1
18,"N#Cc1ccc(Cl)cc1[C@H]1C[C@@H]1C(=O)Nc1nccc2nn(Cc3cn4cc(C5CC5)ccc4n3)cc12 (racemic) [Example 579, rac-(1S*,2S*)-2-(5-chloro-2-cyanophenyl)-N-(2-((6-cyclopropylimidazo[1,2-a]pyridin-2-yl)methyl)-2H-pyrazolo[4,3-c]pyridin-4-yl)cyclopropane-1-carboxamide]",< 1
19,"O=C(Nc1cc(N2CCC[C@@H]2c2cn3cc(C4CC4)ccc3n2)ncn1)[C@H]1C[C@@H]1c1cccc(Cl)c1 [Example I-251, (1S,2S)-2-(3-chlorophenyl)-N-(6-((R)-2-(6-cyclopropylimidazo[1,2-a]pyridin-2-yl)pyrrolidin-1-yl)pyrimidin-4-yl)cyclopropane-1-carboxamide]",10 to 100
20,"O=C(Nc1cc(OCc2cn3cc(C4CC4)ccc3n2)ncn1)[C@H]1C[C@@H]1c1cccc(Cl)c1 (racemic) [Example 104, rac-(1S*,2S*)-2-(3-chlorophenyl)-N-(6-((6-cyclopropylimidazo[1,2-a]pyridin-2-yl)methoxy)pyrimidin-4-yl)cyclopropane-1-carboxamide]",100 to 1000
21,"COC(=O)c1cc(C2CC2)cn2cc(CNc3cc(NC(=O)[C@H]4C[C@@H]4c4cccc(Cl)c4)ncn3)nc12 [Example I-146, methyl 2-(((6-((1S,2S)-2-(3-chlorophenyl)cyclopropane-1-carboxamido)pyrimidin-4-yl)amino)methyl)-6-cyclopropylimidazo[1,2-a]pyridine-8-carboxylate]",1 to 10
22,"O=C(Nc1cc(NCc2cn3cc(C4CC4)cc(N4CCOCC4)c3n2)ncn1)[C@H]1C[C@@H]1c1cccc(Cl)c1 [Example I-154, (1S,2S)-2-(3-chlorophenyl)-N-(6-(((6-cyclopropyl-8-morpholinoimidazo[1,2-a]pyridin-2-yl)methyl)amino)pyrimidin-4-yl)cyclopropane-1-carboxamide]",1 to 10
23,"Cc1ccnc([C@H]2C[C@@H]2C(=O)Nc2cc(NC(C)c3cn4c(N5CC(=O)N(C)C5=O)cc(C5CC5)cc4n3)nc(C)n2)n1 (stereo partly drawn) [Example 362, (1S,2S)-N-(6-((1-(7-cyclopropyl-5-(3-methyl-2,4-dioxoimidazolidin-1-yl)imidazo[1,2-a]pyridin-2-yl)ethyl)amino)-2-methylpyrimidin-4-yl)-2-(4-methylpyrimidin-2-yl)cyclopropane-1-carboxamide]",100 to 1000
24,"Cc1ccnc([C@H]2C[C@@H]2C(=O)Nc2cc(N[C@H](C)c3cn4cc(C5CC5)cc(N=S(C)(C)=O)c4n3)ncn2)n1 [Example 422, (1S,2S)-N-(6-(((R)-1-(6-cyclopropyl-8-((dimethyl(oxo)-16-sulfaneylidene)amino)imidazo[1,2-a]pyridin-2-yl)ethyl)amino)pyrimidin-4-yl)-2-(4-methylpyrimidin-2-yl)cyclopropane-1-carboxamide]",< 1

# Same assay, conditions: comparative compounds, 500 pM activated kallikrein format; read-out: Primary Dose Response Assay: Average EC50
row,Structure (SMILES),EC50 [nM]
1,Clc1cccc([C@H]2C[C@@H]2CNc2cc(NCc3cn4cc(C5CC5)ccc4n3)ncn2)c1,100 to 1000
